Measured values published in patent EP3727588B1, “ACTIVATOR PEPTIDES OF THE ENZYME ADAM 10 AND RELATED USES IN THE TREATMENT OF ALZHEIMER'S DISEASE” (UNIVERSITA' DEGLI STUDI DI MILANO, priority 2017, dated 2019).
Peptide text beside a SMILES is read from it.

Assays:
ADAM10/AP2 complex = target: T1, ADAM10/AP2 complex (Rattus norvegicus, UniProt P62944); experiment: co-immunoprecipitation of ADAM10 with AP2 subunits in primary cultures of hippocampal neurons; type: cell-based
T1 construct: endogenous in cells; host or cells: primary hippocampal neurons of rat embryos, DIV14
Experimental: The primary cultures were prepared from hippocampi of rat embryos as described in [20]. The cultures were grown in media containing Neurobasal (Life Technologies), B27 2% (Life Technologies), GlutaMAX 1% (Life Technologies) and Penicillin/Streptomycin 1% (Pen/Strep; Life Technologies), a 37 °C with 95% humidity and 5% CO2 for 14 days. The cells were treated by diluting the peptides in the complete growth medium, at a final concentration of 1 µM. The treatment was performed for 30 minutes at 37°C, then the neurons were lysed.
For the co-immunoprecipitation experiments, aliquots of 40-100 µg of lysate were incubated at 4°C in RIA 1X buffer (NaCl 200 mM, EDTA 10 mM, Na2HPO4 10 mM, Nonidet P-40, 0.5% and 0.1% SDS) in a final volume of 150 µl with 1-2 µg of antibody. The following day the protein complex A/G (Santa Cruz Biotechnology) was added, conjugated with agarose marbles, and the incubation was continued for 2 hours. After three washes with RIA buffer the samples were loaded onto SDS-PAGE and analysed through Western Blot.
The quantization of the Western Blot analyses was performed through an image analysis program (ImageLab -BioRad). The levels of proteins were expressed as optical density (OD) related to the different measurements and were normalized on respective tubulin levels.
After 30 minutes, the cells were processed and the cell lysate was used for performing the co-IP analyses.

[1] = blood-brain barrier crossing, anti-TAT immunohistochemistry on coronal brain sections; type: in vivo; conditions: C57BL/6 mice, intraperitoneal injection 3 nmoles/g, 24 hours
Experimental: For the immunohistochemistry analyses, mice treated with the peptide were anaesthetized deeply and subjected to transcardial perfusion with 4% paraformaldehyde (prepared in PBS, pH 7.2-7.4), through the use of a peristaltic pump. The fixing liquid was inserted into the blood circulation through the left ventricle and after 10 minutes the brain was isolated. The sample was then post-fixed for 1 hour and 30 minutes at 4°C, then washed with PBS 1X and placed o/n in a 30% sucrose solution. The following day the sample was washed again with PBS 1X cut with the vibratome obtaining coronal sections of 50µm. Then the sections were stained through free-floating immunofluorescence technique. The fluorescence images were acquired using the Zeiss Confocal LSM510 Meta system with 63x objective at a resolution of 1024x1024 pixels. […]
The coronal sections were incubated with a specific antibody for the identification of the MAP2 neurons, and an antibody able to recognize the TAT sequence of HIV-1 present in the CPPs. As shown by the arrows in Figure 6, the presence of a specific signal of the anti-TAT antibody can be identified, which can only be detected in the coronal sections of brain of animals treated with CPPs. […] In the brain of animals only treated with saline solution (Figure 6, panel A), such signal cannot be detected.

[2] = Novel Object Recognition Test (NORT), C57BL/6 mice; type: in vivo; conditions: 14 days' treatment
Experimental: (§1) C57/BL6 adult mice were treated for 14 days with daily intraperitoneal injection of saline solution or peptides at a dose of 3 nmol/g (6-10 animals per experimental group). The animals were maintained in an enclosure at 25 ± 2 °C with an alternating light/dark cycle of 12 hours and had free access to water and food in the form of pellets (standard diet).
After 14 days of treatment the animals were subjected to the Novel Object Recognition Test (NORT). Such test is structured in three phases: habituation, familiarization and testing. In the first phase, the animal is placed in an empty arena and left free to explore the environment for 5 minutes. The day after, during the familiarization phase, the animal is placed in the same arena in the presence of two objects, identical in shape and size, for 10 minutes. Then the time spent by the animal exploring the individual object is recorded. On the third day, the animal is placed in the area in the presence of an identical object to that used in the familiarization phase and a new one. In this phase the difference in time spent by the animal exploring the familiar object and the new object is evaluated. […] In both phases of the test, the objects are positioned symmetrically and opposite inside the arena, and all the sessions are recorded with the aid of a video camera. […]

[3] = body weight and food intake during 14 days' treatment; type: in vivo; conditions: C57BL/6 mice, daily intraperitoneal 3 nmol/g
Experimental: as §1
For the entire duration of the treatment, on a daily basis, the weight and food intake of each animal were monitored and recorded, in order to evaluate any changes caused by the treatment. 24 hours after the last injection the mice were anaesthetized, and then the blood was taken through cardiac puncture, whereas the brain and liver of the animal were rapidly dissected to perform biochemical or immunohistological analyses.
The body weight and food intake were monitored and recorded on a daily basis.

[4] = primary cultures of neurons, 1µM, 30 min
[5] = primary hippocampal neurons DIV 14, 1 µM, 30 minutes

T1 sequence (P18484 whole entry): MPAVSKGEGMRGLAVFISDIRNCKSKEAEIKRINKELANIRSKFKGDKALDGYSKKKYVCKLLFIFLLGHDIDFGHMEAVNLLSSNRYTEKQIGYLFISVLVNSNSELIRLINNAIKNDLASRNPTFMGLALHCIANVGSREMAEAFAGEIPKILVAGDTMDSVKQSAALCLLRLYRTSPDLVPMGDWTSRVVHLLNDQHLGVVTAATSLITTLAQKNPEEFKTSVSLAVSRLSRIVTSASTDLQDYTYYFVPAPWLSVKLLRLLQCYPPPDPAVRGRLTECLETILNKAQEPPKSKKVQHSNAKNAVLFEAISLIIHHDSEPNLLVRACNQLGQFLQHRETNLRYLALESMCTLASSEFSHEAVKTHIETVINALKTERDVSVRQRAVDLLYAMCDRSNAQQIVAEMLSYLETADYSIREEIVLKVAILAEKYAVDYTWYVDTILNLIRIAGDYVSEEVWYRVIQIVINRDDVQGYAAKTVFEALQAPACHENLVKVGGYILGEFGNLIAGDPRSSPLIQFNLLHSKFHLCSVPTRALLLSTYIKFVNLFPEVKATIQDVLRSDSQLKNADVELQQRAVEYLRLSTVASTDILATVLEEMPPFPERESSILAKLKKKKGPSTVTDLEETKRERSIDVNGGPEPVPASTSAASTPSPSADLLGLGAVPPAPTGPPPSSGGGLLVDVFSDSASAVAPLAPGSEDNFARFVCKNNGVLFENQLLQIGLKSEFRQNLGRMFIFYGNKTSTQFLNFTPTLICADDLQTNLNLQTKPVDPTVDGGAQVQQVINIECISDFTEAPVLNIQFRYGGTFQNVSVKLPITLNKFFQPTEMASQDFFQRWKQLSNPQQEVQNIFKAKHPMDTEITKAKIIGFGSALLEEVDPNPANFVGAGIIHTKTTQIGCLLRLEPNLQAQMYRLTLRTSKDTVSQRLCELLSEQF
T1 sequence (P62744 whole entry, further chain): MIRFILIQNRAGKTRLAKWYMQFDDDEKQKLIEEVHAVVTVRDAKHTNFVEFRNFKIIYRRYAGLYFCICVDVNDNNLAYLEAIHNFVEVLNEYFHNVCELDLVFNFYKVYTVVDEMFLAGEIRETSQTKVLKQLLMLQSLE
T1 sequence (P84092 whole entry, further chain): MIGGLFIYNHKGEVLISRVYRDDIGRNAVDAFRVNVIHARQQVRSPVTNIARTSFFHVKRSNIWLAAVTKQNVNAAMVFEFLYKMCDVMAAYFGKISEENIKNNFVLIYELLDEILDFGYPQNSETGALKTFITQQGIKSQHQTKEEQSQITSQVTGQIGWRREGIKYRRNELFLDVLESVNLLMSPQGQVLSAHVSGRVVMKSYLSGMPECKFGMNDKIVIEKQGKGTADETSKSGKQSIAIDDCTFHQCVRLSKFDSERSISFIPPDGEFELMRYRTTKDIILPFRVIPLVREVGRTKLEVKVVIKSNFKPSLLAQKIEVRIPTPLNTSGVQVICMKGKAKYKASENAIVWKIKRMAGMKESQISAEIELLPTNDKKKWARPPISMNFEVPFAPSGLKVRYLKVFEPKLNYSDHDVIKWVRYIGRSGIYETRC
T1 sequence (P62944 whole entry): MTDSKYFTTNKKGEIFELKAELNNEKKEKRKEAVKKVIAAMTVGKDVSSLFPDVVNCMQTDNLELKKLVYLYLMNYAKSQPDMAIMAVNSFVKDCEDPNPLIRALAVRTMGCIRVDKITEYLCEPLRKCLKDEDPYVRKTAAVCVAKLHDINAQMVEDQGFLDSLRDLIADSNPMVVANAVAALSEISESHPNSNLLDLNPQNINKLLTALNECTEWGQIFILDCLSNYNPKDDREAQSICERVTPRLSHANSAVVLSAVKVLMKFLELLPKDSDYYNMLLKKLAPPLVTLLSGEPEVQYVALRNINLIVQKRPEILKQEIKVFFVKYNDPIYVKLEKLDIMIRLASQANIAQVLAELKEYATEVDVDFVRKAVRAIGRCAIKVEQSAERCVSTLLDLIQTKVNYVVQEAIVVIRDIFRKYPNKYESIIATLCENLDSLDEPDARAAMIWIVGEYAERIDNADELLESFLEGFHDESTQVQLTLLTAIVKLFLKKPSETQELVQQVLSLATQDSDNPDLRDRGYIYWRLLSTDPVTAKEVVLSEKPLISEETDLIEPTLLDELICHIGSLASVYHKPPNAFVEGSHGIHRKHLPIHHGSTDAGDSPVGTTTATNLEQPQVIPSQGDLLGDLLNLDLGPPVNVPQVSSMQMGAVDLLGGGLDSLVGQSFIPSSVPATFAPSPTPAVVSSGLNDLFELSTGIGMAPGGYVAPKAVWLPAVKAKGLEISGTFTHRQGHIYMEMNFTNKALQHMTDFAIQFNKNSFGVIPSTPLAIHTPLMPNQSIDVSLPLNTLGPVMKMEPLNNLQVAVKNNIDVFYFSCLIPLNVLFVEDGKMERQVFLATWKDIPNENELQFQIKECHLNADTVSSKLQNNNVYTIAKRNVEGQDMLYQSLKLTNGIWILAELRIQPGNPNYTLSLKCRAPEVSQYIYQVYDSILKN

With `N=C(N)NCCC[C@H](NC(=O)CNC(=O)[C@@H](N)Cc1ccc(O)cc1)C(=O)N[C@@H](CCCCN)C(=O)N[C@@H](CCCCN)C(=O)N[C@@H](CCCNC(=N)N)C(=O)N[C@@H](CCCNC(=N)N)C(=O)N[C@@H](CCC(N)=O)C(=O)N[C@@H](CCCNC(=N)N)C(=O)N[C@@H](CCCNC(=N)N)C(=O)N[C@@H](CCCNC(=N)N)C(=O)NCC(=O)NCC(=O)N[C@@H](CO)C(=O)NCC(=O)N[C@@H](CCC(N)=O)C(=O)N1CCC[C@H]1C(=O)N1CCC[C@H]1C(=O)N[C@@H](CCCNC(=N)N)C(=O)N[C@@H](CCC(N)=O)C(=O)N[C@@H](CCCNC(=N)N)C(=O)N1CCC[C@H]1C(=O)N[C@@H](CCCNC(=N)N)C(=O)NCC(=O)O` [PEP3] (H-YGRKKRRQRRRGGSGQPPRQRPRG-OH) as the molecule, how does the “PEP/inPEP OD, ADAM10/AP2 complex, µ2” value (ADAM10/AP2 complex; [4]) read?
Its value is 22.43 ± 1.25%.

What about the “PEP/inPEP OD, ADAM10/AP2 complex, α-adaptin” value (ADAM10/AP2 complex; [4]) of the same molecule?
The value was 10.84 ± 5.61%.

And the “reduction in the levels of interaction between ADAM10 and the complex AP2, subunit µ2” value (ADAM10/AP2 complex; [5])?
Its value is 78%.

And the “reduction in the levels of interaction between ADAM10 and the complex AP2, subunit α-adaptin” value (ADAM10/AP2 complex; [5])?
Its value is 89%.

What about the “capacity to cross the blood-brain barrier (BBB)” value [1] of the same molecule?
Its value is “can cross the BBB and penetrate into the neuron cells”.

What about the “time exploring the new object” value [2] of the same molecule?
The value was 63.52 ± 4.69%.

And the “food intake (ratio daily food intake / mean body weight)” value [3]?
The value was 97.09±2.18%.
